Experimental data reported in patent US7786141B2 (Vertex Pharmaceuticals Incorporated, priority 2004, dated 2010).
Where two headings read alike, the source gives them in different places.

Experiments:
M4 muscarinic receptor = target: T1, M4 muscarinic receptor (Homo sapiens, UniProt P08173); test: Functional mobilization of intracellular calcium (FLIPR) in M4-CHO cells; format: cell-based
T1 construct: expressed in transfected cells; host or cells: CHO (M4-CHO)
T1 sequence (P08173 1-479): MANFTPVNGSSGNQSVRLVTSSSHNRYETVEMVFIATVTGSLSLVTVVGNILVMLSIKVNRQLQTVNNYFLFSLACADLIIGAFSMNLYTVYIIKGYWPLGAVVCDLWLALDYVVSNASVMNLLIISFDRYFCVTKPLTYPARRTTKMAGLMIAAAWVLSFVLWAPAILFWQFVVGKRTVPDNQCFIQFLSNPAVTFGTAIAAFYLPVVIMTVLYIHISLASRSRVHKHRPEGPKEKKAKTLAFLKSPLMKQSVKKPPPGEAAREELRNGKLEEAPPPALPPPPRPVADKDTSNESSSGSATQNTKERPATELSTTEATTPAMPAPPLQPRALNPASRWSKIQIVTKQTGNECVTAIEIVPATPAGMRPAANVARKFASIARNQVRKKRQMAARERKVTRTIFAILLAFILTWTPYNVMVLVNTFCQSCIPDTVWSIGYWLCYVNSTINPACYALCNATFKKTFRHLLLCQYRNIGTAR
In short: (§1)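 FLIPR Ca2+ read, ex 488/em 540 nm, 60 s. Recombinant CHO lines (M1 or M4), dye-loaded Fluo-3 AM 60-90 min at 37° C, probenecid 1 mM, pH 7.4. Agonist: compound alone; inhibition: 15 min compound pre-incubation, then carbachol at EC80 for that subtype.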

M1 muscarinic receptor = target: T2, M1 muscarinic receptor (Homo sapiens, UniProt P11229); test: Functional mobilization of intracellular calcium (FLIPR) in M1-CHO cells; format: cell-based
T2 construct: expressed in transfected cells; host or cells: CHO (M1-CHO)
T2 sequence (P11229 1-460): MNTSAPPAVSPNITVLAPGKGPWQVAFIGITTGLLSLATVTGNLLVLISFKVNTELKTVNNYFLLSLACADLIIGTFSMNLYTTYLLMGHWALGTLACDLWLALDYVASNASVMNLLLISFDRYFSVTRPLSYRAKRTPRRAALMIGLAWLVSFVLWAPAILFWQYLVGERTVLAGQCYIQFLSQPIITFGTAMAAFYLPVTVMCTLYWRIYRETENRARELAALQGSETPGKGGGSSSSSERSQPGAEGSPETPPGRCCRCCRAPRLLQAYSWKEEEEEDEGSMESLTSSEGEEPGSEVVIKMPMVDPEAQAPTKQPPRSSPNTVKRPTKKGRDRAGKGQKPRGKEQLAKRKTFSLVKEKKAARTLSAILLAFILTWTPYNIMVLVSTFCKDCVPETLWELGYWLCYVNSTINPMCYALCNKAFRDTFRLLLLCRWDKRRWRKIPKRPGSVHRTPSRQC
In short: as §1

[1] = M4 receptor, calcium mobilization
[2] = M4 receptor, calcium mobilization, read-out: M4 Efficacy
[3] = M1 receptor, calcium mobilization
[4] = M1 receptor, calcium mobilization, read-out: M1 Efficacy
[5] = Table 4, 100% efficacy is the maximum response obtained with the Carbachol control
[6] = Table 4, modulating M4 receptor
[7] = Table 4, modulating M1 receptor
[8] = M4-CHO cells, calcium mobilization (FLIPR)
[9] = M4-CHO cells, calcium mobilization (FLIPR), read-out: M4 Efficacy
[10] = M1-CHO cells, calcium mobilization (FLIPR)
[11] = M1-CHO cells, calcium mobilization (FLIPR), read-out: M1 Efficacy
[12] = 100% efficacy is the maximum response obtained with the Carbachol control, Table 5
[13] = Table 4, M4 receptor, calcium mobilization (FLIPR)
[14] = Table 4, M1 receptor, calcium mobilization (FLIPR)

Row | Compound | M4 Activity (M4 muscarinic receptor; [1]) | Emax (M4 muscarinic receptor; [2]) [%] | M1 Activity (M1 muscarinic receptor; [3]) | Emax (M1 muscarinic receptor; [4]) [%] | Emax (M4 muscarinic receptor; [5]) [%] | Emax (M1 muscarinic receptor; [5]) [%] | further results
1 | CCC1CCC(N2CCC3(CC2)C[C@H](NC(C)=O)c2ccccc23)CC1 (stereo partly shown) [compound 367] | x (activity was measured to be greater than 1.0 μM) | < 65 | x (activity was measured to be greater than 1.0 μM) | < 65 | – | – | –
2 | C#CCCC(=O)N1CCC(N2CCC3(CC2)CN(C(=O)N(C)C)c2ccc(F)cc23)CC1 [compound 553] | – | – | – | – | < 25 | 25 to 100 | M4 Activity (M4 muscarinic receptor; [6]): xxx (activity was measured to be less than 2.0 μM); M1 Activity (M1 muscarinic receptor; [7]): xxx (activity was measured to be less than 2.0 μM)
3 | CCOC(=O)N1CCC(N2CCC3(CC2)CN(CC(C)=O)c2ccc(F)cc23)CC1 [compound 249] | x (activity was measured to be greater than 1.0 μM) | 65 to 85 | x (activity was measured to be greater than 1.0 μM) | 65 to 85 | – | – | –
4 | CC(=O)N1CC2(CCN(C3CCN(c4cncc(-c5ccccc5F)n4)CC3)CC2)c2ccccc21 [compound 461] | – | – | – | – | < 25 | 25 to 100 | M4 Activity (M4 muscarinic receptor; [6]): x (activity was measured to be greater than 5.0 μM); M1 Activity (M1 muscarinic receptor; [7]): xx (activity was measured to be between 2.0 μM and 5.0 μM)
5 | CCOC(=O)N1CCC(N2CCC3(CC2)CN(C(C)=O)c2ccc(C4=CCCC4)cc23)CC1 [compound 426] | – | – | – | – | – | – | EC50 (M4 muscarinic receptor; [8]): > 1000 nM; Emax (M4 muscarinic receptor; [9]): < 65%; EC50 (M1 muscarinic receptor; [10]): > 1000 nM; Emax (M1 muscarinic receptor; [11]): < 65%
6 | COC(=O)N1CCC(CN2CCC3(CC2)C[C@H](NC(C)=O)c2ccccc23)CC1 [compound 182] | x (activity was measured to be greater than 1.0 μM) | 65 to 85 | x (activity was measured to be greater than 1.0 μM) | 65 to 85 | – | – | –
7 | COc1ccccc1N1CCC(N2CCC3(CC2)CN(C(=O)N(C)C)c2ccc(F)cc23)CC1 [compound 1027] | – | – | – | – | – | – | Emax (M4 muscarinic receptor; [12]): 25 to 100%; EC50 (M4 muscarinic receptor; CHO cells expressing M4, calcium mobilization, Table 5): 2000 to 10000 nM; Emax (M1 muscarinic receptor; [12]): 25 to 100%; EC50 (M1 muscarinic receptor; CHO cells expressing M1, calcium mobilization, Table 5): 2000 to 10000 nM
8 | CN(C)C(=O)N1CC2(CCN(C[C@@H]3CCN(C(=O)OCC(F)F)C3)CC2)c2cc(F)ccc21 [compound 625] | – | – | – | – | > 100 | 25 to 100 | M4 Activity (M4 muscarinic receptor; [6]): xxx (activity was measured to be less than 2.0 μM); M1 Activity (M1 muscarinic receptor; [7]): xxx (activity was measured to be less than 2.0 μM)
9 | CCOC(=O)N1CCC(N2CCC3(CC2)CN(C(C)=O)c2ccc(-c4ccc(C#N)cc4)cc23)CC1 [compound 253] | x (activity was measured to be greater than 1.0 μM) | 65 to 85 | xx (activity was measured to be between 0.1 μM and 1.0 μM) | 65 to 85 | – | – | –
10 | CC(C)OC(=O)N1C2CCC1CC(N1CCC3(CCc4ccccc43)CC1)C2 (stereo not shown) [compound 285] | x (activity was measured to be greater than 1.0 μM) | < 65 | xx (activity was measured to be between 0.1 μM and 1.0 μM) | < 65 | – | – | –
11 | CC(=O)N1CC2(CCN(C3CC4CCC(C3)N4C(=O)OC3CCC3)CC2)c2cc(F)ccc21 (stereo not shown) [compound 174] | x (activity was measured to be greater than 1.0 μM) | 65 to 85 | xxx (activity was measured to be less than 0.1 μM) | > 85 | – | – | –
12 | Fc1ccc2c(c1)C1(CCN(C3CCCCC3)CC1)CO2 [compound 152] | x (activity was measured to be greater than 1.0 μM) | > 85 | xx (activity was measured to be between 0.1 μM and 1.0 μM) | 65 to 85 | – | – | –
13 | Clc1ccc2c(c1)C1(CCO2)CCN([C@@H]2C[C@@H]3CC[C@H]2C3)CC1 [compound 369] | xx (activity was measured to be between 0.1 μM and 1.0 μM) | > 85 | xxx (activity was measured to be less than 0.1 μM) | > 85 | – | – | –
14 | CC(=O)N[C@H]1CC2(CCN(CC3CC4C=CC3C4)C2)c2ccc(F)cc21 (stereo partly shown) [compound 692] | – | – | – | – | 25 to 100 | 25 to 100 | M4 Activity (M4 muscarinic receptor; [6]): xxx (activity was measured to be less than 2.0 μM); M1 Activity (M1 muscarinic receptor; [7]): xxx (activity was measured to be less than 2.0 μM)
15 | CCOC(=O)N1CCC(CN2CCC3(CC2)CN(C(C)=O)c2ccc(OC)cc23)CC1 [compound 237] | xx (activity was measured to be between 0.1 μM and 1.0 μM) | < 65 | xxx (activity was measured to be less than 0.1 μM) | < 65 | – | – | –
16 | CCCC#CCOC(=O)N1C2CCC1CC(N1CCC3(CC1)CN(C(C)=O)c1ccccc13)C2 (stereo not shown) [compound 820] | – | – | – | – | 25 to 100 | 25 to 100 | M4 Activity (M4 muscarinic receptor; [13]): xxx (activity was measured to be less than 2.0 μM); M1 Activity (M1 muscarinic receptor; [14]): xxx (activity was measured to be less than 2.0 μM)
17 | O=C(O[C@@H]1CCOC1)N1C2CCC1CC(N1CCC3(CCc4ccccc43)CC1)C2 (stereo partly shown) [compound 43] | x (activity was measured to be greater than 1.0 μM) | > 85 | xxx (activity was measured to be less than 0.1 μM) | > 85 | – | – | –
18 | CC(=O)N1CC2(CCN(C3CCCCC3)CC2)c2cc(F)ccc21 [compound 387] | – | – | – | – | – | – | EC50 (M4 muscarinic receptor; [8]): 100 to 1000 nM; Emax (M4 muscarinic receptor; [9]): < 65%; EC50 (M1 muscarinic receptor; [10]): < 100 nM; Emax (M1 muscarinic receptor; [11]): 65 to 85%
19 | CCOC(=O)N1CCC(N2CCC3(CC2)CN(C(=O)N2CCCC2)c2ccc(F)cc23)CC1 [compound 22] | x (activity was measured to be greater than 1.0 μM) | < 65 | xxx (activity was measured to be less than 0.1 μM) | 65 to 85 | – | – | –
20 | CN(C)C(=O)N1CC2(CCN(C3CCN(c4ncnc5ccsc45)CC3)CC2)c2cc(F)ccc21 [compound 965] | – | – | – | – | 25 to 100 | 25 to 100 | M4 Activity (M4 muscarinic receptor; [13]): xxx (activity was measured to be less than 2.0 μM); M1 Activity (M1 muscarinic receptor; [14]): x (activity was measured to be greater than 5.0 μM)
21 | O=C1CC2(CCN(C3CCCCCC3)CC2)c2ccc(Cl)cc21 [compound 609] | – | – | – | – | 25 to 100 | 25 to 100 | M4 Activity (M4 muscarinic receptor; [6]): xxx (activity was measured to be less than 2.0 μM); M1 Activity (M1 muscarinic receptor; [7]): xx (activity was measured to be between 2.0 μM and 5.0 μM)
22 | Cc1ccc2c(c1)C1(CCN(C3CC4CCC3C4)CC1)CN2S(C)(=O)=O (stereo not shown) [compound 232] | xxx (activity was measured to be less than 0.1 μM) | > 85 | xx (activity was measured to be between 0.1 μM and 1.0 μM) | < 65 | – | – | –
